Source: patent US10358434B2, “2-(3-pyridinyl)-1H-benzimidazole derivative compound and medicament containing same” (NIHON MEDI-PHYSICS CO., LTD., priority 2014, dated 2019)

Key:
[1] = Plasma stability evaluation (TLC analysis); type: in vitro ADME; conditions: 37° C., 60 minutes, TLC analysis
Summary of the method: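 TLC analysis, using each compound's synthesis conditions, judged stability after methanol was added and samples were centrifuged to remove protein. Beforehand, each tracer had spent 60 minutes at 37° C in pooled heparinized normal human plasma.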

[2] = In vivo kinetics experiment (radioactivity distribution); parameters: species or system Wistar male rat; conditions: rat i.v., mean ± SD
Summary of the method: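 Tissue radioactivity (% ID/g) and adrenal-to-blood, liver, kidney, small intestine, muscle and fat ratios determined at 10, 30 and 60 min post-dose. Tracers (approximately 1 to 3.7 MBq, saline with 1 w/v % ascorbic acid) injected i.v. into caudal vein of anesthetized 9-week male Wistar rats; organs excised, weighed, counted.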

[3] = test system: human adrenal gland section expressing aldosterone-producing adenoma; assay: In vitro autoradiography using human adrenal adenoma; type: binding; conditions: section of FIG. 17(b)
Summary of the method: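 Autoradiography readout: PSL in equal-sized ROIs over adenoma (B2) and normal adrenal cortex (B1), expressed as B2/B1 and decay-corrected using half-life, applied activity and plate contact time. Tissue was surgically excised human adrenal, frozen and cut at 7 μm, incubated 10 min with 5-33 kBq/mL tracer in BSA-containing PBS, then imaged after 16-20 h exposure.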

## COc1cc([123I])cc2c1nc(-c1cncc(Cn3ccnc3)c1)n2C1CC1 [[^123I] 609, 1-Cyclopropyl-2-[5-(imidazol-1-ylmethyl)pyridin-3-yl]-6-[^123I]iodo-4-methoxybenzimidazole]
[1]
  Radiochemical purity after incubation in human plasma: 86%
[2]; 10 min after administration
  Adrenal gland/blood ratio of radioactivity accumulation: 70.18 ± 9.10
  Adrenal gland/fat ratio of radioactivity accumulation: 92.34 ± 17.88
  Adrenal gland/kidney ratio of radioactivity accumulation: 7.38 ± 1.46
  Adrenal gland/liver ratio of radioactivity accumulation: 1.55 ± 0.09
  Adrenal gland/muscle ratio of radioactivity accumulation: 46.03 ± 17.74
  Adrenal gland/small intestine ratio of radioactivity accumulation: 5.04 ± 0.97
  Radioactivity distribution Adrenal gland: 8.54 ± 1.17 % ID/g
  Radioactivity distribution Bladder (including urine): 0.17 ± 0.08 % ID/g
  Radioactivity distribution Blood: 0.12 ± 0.00 % ID/g
  Radioactivity distribution Fat: 0.09 ± 0.01 % ID/g
  Radioactivity distribution Femur: 0.37 ± 0.06 % ID/g
  Radioactivity distribution Heart: 0.36 ± 0.01 % ID/g
  Radioactivity distribution Kidney: 1.17 ± 0.08 % ID/g
  Radioactivity distribution Large intestine: 0.16 ± 0.01 % ID/g
  Radioactivity distribution Liver: 5.50 ± 0.46 % ID/g
  Radioactivity distribution Lung: 0.51 ± 0.04 % ID/g
  Radioactivity distribution Muscle (lower limbs): 0.20 ± 0.06 % ID/g
  Radioactivity distribution Remaining whole body: 0.20 ± 0.03 % ID/g
  Radioactivity distribution Small intestine: 1.71 ± 0.18 % ID/g
  Radioactivity distribution Spleen: 0.82 ± 0.05 % ID/g
  Radioactivity distribution Stomach: 0.65 ± 0.25 % ID/g
  Radioactivity distribution Testis: 0.05 ± 0.00 % ID/g
  Radioactivity distribution Whole brain: 0.02 ± 0.00 % ID/g
[2]; 30 min after administration
  Adrenal gland/blood ratio of radioactivity accumulation: 78.36 ± 23.36
  Adrenal gland/fat ratio of radioactivity accumulation: 110.76 ± 35.85
  Adrenal gland/kidney ratio of radioactivity accumulation: 11.13 ± 2.62
  Adrenal gland/liver ratio of radioactivity accumulation: 2.54 ± 0.51
  Adrenal gland/muscle ratio of radioactivity accumulation: 66.27 ± 15.78
  Adrenal gland/small intestine ratio of radioactivity accumulation: 2.54 ± 0.80
  Radioactivity distribution Adrenal gland: 11.21 ± 3.24 % ID/g
  Radioactivity distribution Bladder (including urine): 0.80 ± 0.10 % ID/g
  Radioactivity distribution Blood: 0.14 ± 0.01 % ID/g
  Radioactivity distribution Fat: 0.10 ± 0.02 % ID/g
  Radioactivity distribution Femur: 0.29 ± 0.04 % ID/g
  Radioactivity distribution Heart: 0.36 ± 0.02 % ID/g
  Radioactivity distribution Kidney: 1.00 ± 0.07 % ID/g
  Radioactivity distribution Large intestine: 0.18 ± 0.03 % ID/g
  Radioactivity distribution Liver: 4.36 ± 0.46 % ID/g
  Radioactivity distribution Lung: 0.42 ± 0.05 % ID/g
  Radioactivity distribution Muscle (lower limbs): 0.17 ± 0.03 % ID/g
  Radioactivity distribution Remaining whole body: 0.14 ± 0.01 % ID/g
  Radioactivity distribution Small intestine: 4.44 ± 0.63 % ID/g
  Radioactivity distribution Spleen: 0.43 ± 0.03 % ID/g
  Radioactivity distribution Stomach: 1.27 ± 0.17 % ID/g
  Radioactivity distribution Testis: 0.07 ± 0.01 % ID/g
  Radioactivity distribution Whole brain: 0.02 ± 0.00 % ID/g
[2]; 60 min after administration
  Adrenal gland/blood ratio of radioactivity accumulation: 87.48 ± 12.64
  Adrenal gland/fat ratio of radioactivity accumulation: 147.76 ± 20.75
  Adrenal gland/kidney ratio of radioactivity accumulation: 13.00 ± 2.52
  Adrenal gland/liver ratio of radioactivity accumulation: 3.99 ± 0.57
  Adrenal gland/muscle ratio of radioactivity accumulation: 103.59 ± 13.53
  Adrenal gland/small intestine ratio of radioactivity accumulation: 1.53 ± 0.14
  Radioactivity distribution Adrenal gland: 11.04 ± 1.72 % ID/g
  Radioactivity distribution Bladder (including urine): 2.03 ± 0.70 % ID/g
  Radioactivity distribution Blood: 0.13 ± 0.00 % ID/g
  Radioactivity distribution Fat: 0.07 ± 0.01 % ID/g
  Radioactivity distribution Femur: 0.33 ± 0.03 % ID/g
  Radioactivity distribution Heart: 0.33 ± 0.02 % ID/g
  Radioactivity distribution Kidney: 0.85 ± 0.03 % ID/g
  Radioactivity distribution Large intestine: 0.63 ± 0.43 % ID/g
  Radioactivity distribution Liver: 2.77 ± 0.15 % ID/g
  Radioactivity distribution Lung: 0.38 ± 0.02 % ID/g
  Radioactivity distribution Muscle (lower limbs): 0.11 ± 0.00 % ID/g
  Radioactivity distribution Remaining whole body: 0.10 ± 0.00 % ID/g
  Radioactivity distribution Small intestine: 7.17 ± 0.45 % ID/g
  Radioactivity distribution Spleen: 0.30 ± 0.01 % ID/g
  Radioactivity distribution Stomach: 1.47 ± 0.33 % ID/g
  Radioactivity distribution Testis: 0.07 ± 0.01 % ID/g
  Radioactivity distribution Whole brain: 0.01 ± 0.00 % ID/g
[3]
  B2/B1 accumulation ratio: 0.85
[3]; site 71b
  B2 (PSL value, aldosterone-producing adenoma): 3805
[3]; site 72b
  B1 (PSL value, normal adrenal cortex): 4479
